# Measured values as given in paper PMC12216609, “Inhibitors of eIF1A-ribosome interaction unveil uORF-dependent regulation of translation initiation and antitumor and antiviral effects” (The EMBO Journal, 2025).
# Values joined by “and” are separate entries in the source; they are usually repeats but may differ in a detail not shown here. Equal values may be shown once. Read-outs that look alike come from different tables or passages of the source.
# Assays:
# [1] = tested on: regulatory CUG of SARS-CoV-2 ORF7a 5'UTR in HEK293T cells; assay type: cell-based; conditions: for average (inverted): normalized to DMSO = 1.000, mean of 3 reps; for CUG/AUG ratio (Renilla/firefly): overnight; for FF CTG signal, mean of duplicates / FF vs Rluc / FF vs Rluc, inverted / Rluc ATG signal, mean of duplicates / normalized to DMSO: reps 1-3; for normalized to DMSO: DMSO = 1
# eIF1A-RPS10 interaction = biological target: T1, eIF1A-RPS10 interaction (Homo sapiens, UniProt P46783+P47813); experiment: Split-Renilla luciferase eIF1A-RPS10 interaction screen, dose-response; assay type: biochemical
# T1 construct: made in house; host or cells: E. coli BL21 (PRSFduet); unpurified lysate supernatant
# Outline: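 The assay used bacterial lysates containing human eIF1A and RPS10, each carrying a partial Renilla luciferase, with eIF1A tagged at its C-terminus. Inhibition was scored as reduced luciferase signal from compounds prepared as 10 mM DMSO stocks.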
# eIF1A without CTT = biological target: T2, eIF1A without CTT (Homo sapiens, UniProt P47813); assay type: binding; conditions: for fluorescence ratio, eIF1A Δ CTT: background-corrected, relative to DMSO or lowest 1Ai concentration, replicate columns
# T2 construct: His-bdSUMO (cleaved yes); made in house; host or cells: E. coli (BL-21)
# eIF1A without NTT = biological target: T3, eIF1A without NTT (Homo sapiens, UniProt P47813); experiment: Fluorescence binding assay with NTT-truncated eIF1A; conditions: for fluorescence ratio, eIF1A Δ NTT: background-corrected, relative to DMSO or lowest 1Ai concentration, replicate columns
# T3 construct: His-bdSUMO (cleaved yes); made in house; host or cells: E. coli (BL-21)
# [2] = tested on: uORF-bearing 5'UTR firefly reporters in HEK293T cells; experiment: uORF reinitiation / leaky scanning firefly reporters; conditions: for ff/rl, 46 leaky reporter / ff/rl, 46 reporter / ff/rl, normal reporter: single replicates, not normalized to DMSO
# Description: (M) The reference and uORF-bearing reporters were transfected to HEK293T cells together with RL, which served to normalize translation efficiency. The reporter activities are represented as firefly vs RL; n ≥3 independent biological replicates, error bars represent SEM. *P < 0.05, **P < 0.01, Student t test. (N) Firefly Reporters (J) were transfected to HEK293T cells together with normalizing RL. […] Results are represented as firefly vs. RL normalized to DMSO in each biological replicate; n = 4, error bars represent SEM. *P < 0.05, **P < 0.01, Student t test.
# In the first and second, we inserted an out-of-frame uAUG 46 or 95 nucleotides before the main ORF, respectively, followed by a downstream stop codon generating an uORF of 10 amino acids. In these constructs, the translation from the main ORF could be either by reinitiation or leaky scanning. In the third construct, this out of frame uAUG lacks a stop codon, causing initiation from the main ORF to exclusively occur via leaky scanning (Fig. 4L). These reporters were transfected into HEK293T cells together with RL luciferase reporter for normalizing transfection efficiency. […] We next examined these reporters in the presence of 1Ais.
# [3] = summary table, read-out: IC50 concentration (µM), IC50 screen
# T2 sequence (P47813 1-114 limits assumed): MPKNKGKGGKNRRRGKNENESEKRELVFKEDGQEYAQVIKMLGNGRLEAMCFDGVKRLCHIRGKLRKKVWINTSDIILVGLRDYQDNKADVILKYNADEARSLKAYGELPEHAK
# T3 sequence (P47813 31-144 limits assumed): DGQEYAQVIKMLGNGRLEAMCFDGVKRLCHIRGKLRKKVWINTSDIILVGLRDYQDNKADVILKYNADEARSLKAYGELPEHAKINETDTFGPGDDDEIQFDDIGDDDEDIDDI
# T1 sequence (P47813 whole entry, one chain of several): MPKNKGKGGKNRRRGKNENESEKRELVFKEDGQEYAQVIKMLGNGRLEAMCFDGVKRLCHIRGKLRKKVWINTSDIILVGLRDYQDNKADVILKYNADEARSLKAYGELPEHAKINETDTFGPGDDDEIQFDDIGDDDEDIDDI
smiles,measurement,setting,value
O=c1cc(CN2CCOCC2)occ1OCCCCCSc1ccnc2cc(C(F)(F)F)ccc12 [1Ai-5730],average (inverted),[1],0.744
same,CUG/AUG ratio (Renilla/firefly),[1],decreased the CUG/AUG ratio to variable degrees
same,"FF CTG signal, mean of duplicates",[1],5472.4 and 6803.94 and 6446.76
same,FF vs Rluc,[1],54.969 and 55.654 and 55.147
same,"FF vs Rluc, inverted",[1],0.018
same,"Rluc ATG signal, mean of duplicates",[1],2604320 and 3030300 and 3158315
same,normalized to DMSO,[1],0.748 and 0.739 and 0.745
same,IC50,"eIF1A-RPS10 interaction; Appendix Table S1, read-out: IC50 from the split RL screen",30 µM
same,IC50,eIF1A-RPS10 interaction; [3],24 µM
Cc1ccc(C)n1-c1cc([N+](=O)[O-])ccc1N1CCN(C(=O)c2ccccc2)CC1 [1Ai-9008],average (inverted),[1],0.875
same,CUG/AUG ratio (Renilla/firefly),[1],decreased the CUG/AUG ratio to variable degrees
same,"FF CTG signal, mean of duplicates",[1],19795.8 and 14760.8 and 12081.3
same,FF vs Rluc,[1],47.590 and 44.537 and 48.991
same,"FF vs Rluc, inverted",[1],0.021 and 0.022 and 0.020
same,"Rluc ATG signal, mean of duplicates",[1],10881500 and 8214985 and 6662440
same,normalized to DMSO,[1],0.864 and 0.923 and 0.839
same,IC50,eIF1A-RPS10 interaction; [3],27 µM
O=C(COc1ccccc1[N+](=O)[O-])NCc1ccc(-c2ccc(Br)cc2)o1 [1Ai-4700],"fluorescence ratio, eIF1A Δ CTT",eIF1A without CTT; 1Ai conc. 0.25 uM,1.002 and 1.029
same,"fluorescence ratio, eIF1A Δ CTT",eIF1A without CTT; 1Ai conc. 0.5 uM,0.8837 and 0.9156
same,"fluorescence ratio, eIF1A Δ CTT",eIF1A without CTT; 1Ai conc. 1 uM,0.8554 and 0.8332
same,"fluorescence ratio, eIF1A Δ CTT",eIF1A without CTT; 1Ai conc. 2 uM,0.9021 and 0.8902
same,"fluorescence ratio, eIF1A Δ CTT",eIF1A without CTT; 1Ai conc. 4 uM,0.8119 and 0.7934
same,"fluorescence ratio, eIF1A Δ CTT",eIF1A without CTT; 1Ai conc. 8 uM,0.6359 and 0.584
same,"fluorescence ratio, eIF1A Δ CTT",eIF1A without CTT; 1Ai conc. 16 uM,0.7372 and 0.671
same,"fluorescence ratio, eIF1A Δ CTT",eIF1A without CTT; 1Ai conc. 32 uM,0.5663 and 0.5472
same,"fluorescence ratio, eIF1A Δ CTT",eIF1A without CTT; 1Ai conc. 64 uM,0.381 and 0.3897
same,"fluorescence ratio, eIF1A Δ CTT",eIF1A without CTT; 1Ai conc. 256 uM,0.2785 and 0.26
same,IC50,"eIF1A without CTT; eIF1A Δ CTT, from the titration data, read-out: IC50 (eIF1A Δ CTT titration block)",30.2 µM
same,IC50,"eIF1A without CTT; summary table, fluorescence binding assay, read-out: IC50 concentration (µM), CTT truncation",30.2 µM
same,IC50,eIF1A-RPS10 interaction; [3],11 µM
same,binding to NTT-truncated eIF1A,eIF1A without NTT,significantly decreased
same,"fluorescence ratio, eIF1A Δ NTT",eIF1A without NTT; 1Ai conc. 0.25 uM,0.8472 and 0.7714
same,"fluorescence ratio, eIF1A Δ NTT",eIF1A without NTT; 1Ai conc. 0.5 uM,0.8794 and 0.8467
same,"fluorescence ratio, eIF1A Δ NTT",eIF1A without NTT; 1Ai conc. 1 uM,0.866 and 0.8543
same,"fluorescence ratio, eIF1A Δ NTT",eIF1A without NTT; 1Ai conc. 2 uM,0.8713 and 0.8518
same,"fluorescence ratio, eIF1A Δ NTT",eIF1A without NTT; 1Ai conc. 4 uM,0.8204 and 0.8417
same,"fluorescence ratio, eIF1A Δ NTT",eIF1A without NTT; 1Ai conc. 8 uM,2.437 and 0.8015
same,"fluorescence ratio, eIF1A Δ NTT",eIF1A without NTT; 1Ai conc. 16 uM,0.7775 and 0.7663
same,"fluorescence ratio, eIF1A Δ NTT",eIF1A without NTT; 1Ai conc. 32 uM,0.7078 and 0.6935
same,"fluorescence ratio, eIF1A Δ NTT",eIF1A without NTT; 1Ai conc. 64 uM,0.6729 and 0.5628
same,"fluorescence ratio, eIF1A Δ NTT",eIF1A without NTT; 1Ai conc. 256 uM,0.6059 and 0.6683
same,IC50,"eIF1A without NTT; eIF1A Δ NTT, from the titration data, read-out: IC50 (eIF1A Δ NTT titration block)",30.2 µM
same,IC50,"eIF1A without NTT; summary table, fluorescence binding assay, read-out: IC50 concentration (µM), NTT truncation",45.7 µM
same,effect on uORF / leaky scanning reporters,"[2]; 20uM (1Ai-5175 at 5uM), overnight",inhibit the short-distance reinitiation
same,"normalized to DMSO, 46 leaky, average","[2]; 46 leaky reporter, average of biological repeats",0.994
same,"normalized to DMSO, 46 leaky, biological repeats","[2]; 46 leaky reporter, biological repeats 1-4",0.989 and 1.082 and 1.159 and 0.746
same,"normalized to DMSO, 46 leaky","[2]; 46 leaky reporter, single replicates 1-8 (two dates)",0.973 and 1.005 and 1.055 and 1.109 and 1.618 and 0.700 and 0.255 and 1.237
same,"normalized to DMSO, -46, average","[2]; -46 reporter, average of biological repeats",0.679
same,"normalized to DMSO, -46, biological repeats","[2]; -46 reporter, biological repeats 1-4",0.691 and 0.744 and 0.743 and 0.536
same,"normalized to DMSO, -46","[2]; -46 reporter, single replicates 1-8 (two dates)",0.671 and 0.712 and 0.669 and 0.819 and 1.007 and 0.479 and 0.251 and 0.821
same,"ff/rl, 46 leaky reporter",[2]; experiment 12.3.24,3.84E-02 and 3.96E-02 and 4.16E-02 and 4.37E-02
same,"ff/rl, 46 reporter",[2]; experiment 12.3.24,1.06E-01 (2×) and 1.12E-01 and 1.29E-01
same,"ff/rl, normal reporter",[2]; experiment 12.3.24,2.90E-01 and 2.11E-01 and 2.89E-01 and 2.67E-01
same,"ff/rl, 46 leaky reporter",[2]; experiment 13.03.24,1.47E-02 and 6.33E-03 and 2.31E-03 and 1.12E-02
same,"ff/rl, 46 reporter",[2]; experiment 13.03.24,2.46E-02 and 1.17E-02 and 6.14E-03 and 2.01E-02
same,"ff/rl, normal reporter",[2]; experiment 13.03.24,3.97E-02 and 5.12E-02 and 7.78E-02 and 1.08E-01
same,"reporter activity norm to DMSO, minus46","[2]; minus46 reporter, 95nt from uORF to main ORF experiment, Figure 4N source data, replicate experiments, DMSO = 1",0.3368 and 0.3707
same,"reporter activity norm to DMSO, minus 95","[2]; minus 95 (nt) reporter, 95nt from uORF to main ORF experiment, Figure 4N source data, replicate experiments, DMSO = 1",1.361 and 1.106
same,"reporter activity norm to DMSO, ref","[2]; ref reporter, 95nt from uORF to main ORF experiment, Figure 4N source data, replicate experiments, DMSO = 1",0.8256 and 0.6094
same,"normalized to DMSO, refference, average","[2]; refference reporter, average of biological repeats",0.908
same,"normalized to DMSO, refference","[2]; refference reporter, single replicates 1-8 (two dates)",1.031 and 0.751 and 1.028 and 0.950 and 0.503 and 0.648 and 0.985 and 1.371
same,"normalized to DMSO, single replicates","[2]; reporter 46, experiment 12.3.24",6.71E-01 and 7.12E-01 and 6.69E-01 and 8.19E-01
same,"normalize to DMSO, average","[2]; reporter 46, experiment 12.3.24, DMSO = 1",0.7177
same,"normalized to DMSO, single replicates","[2]; reporter 46, experiment 13.3.24",1.01E+00 and 4.79E-01 and 2.51E-01 and 8.21E-01
same,"normalize to DMSO, average","[2]; reporter 46, experiment 13.3.24, DMSO = 1",0.6395
same,"normalize to DMSO, average","[2]; reporter 46 leaky, experiment 12.3.24, DMSO = 1",1.036
same,"normalized to DMSO, single replicates","[2]; reporter 46 leaky, experiment 13.3.24",1.62E+00 and 7.00E-01 and 2.55E-01 and 1.24E+00
same,"normalize to DMSO, average","[2]; reporter 46 leaky, experiment 13.3.24, DMSO = 1",0.9525
same,"normalized to DMSO, single replicates","[2]; reporter normal (refference), experiment 12.3.24",1.03E+00 (2×) and 7.51E-01 and 9.50E-01
same,"normalized to DMSO, single replicates","[2]; reporter normal (refference), experiment 13.3.24",5.03E-01 and 6.48E-01 and 9.85E-01 and 1.37E+00
same,"normalize to DMSO, average","[2]; reporter refference, experiment 12.3.24, DMSO = 1",0.9399
same,"normalize to DMSO, average","[2]; reporter refference, experiment 13.3.24, DMSO = 1",0.8765
same,inhibitory effect with extended (long) reinitiation distance,[2]; uORF to main ORF distance extended by 49 nt,lost
